“And” between values parts separate entries of the source, which are not always exact repeats. Equal values may be shown once. “Also recorded” adds a separate entry of the source.
Key:
TMEM16A (ANO1) [1] = target: T1, TMEM16A (ANO1) (Mus musculus, UniProt Q8BHY3); test: Anion permeability of the ANO1 pore, Erev under bi-ionic conditions; format: cell-based; settings: for permeability ratio PX/PCl: Ca^2+-activated current, calculated from Erev after junction potential correction; for zero current potential of I–V curve: example ramp −80 to +80 mV, [Ca^2+] = 20 µM, intracellular salt 140 mM (NaHCO3 130 mM + 10 mM NaCl)
T1 construct: We subcloned the coding region of the cDNA into pEGFP-N3 vector; expressed in transfected cells; host or cells: HEK293 cells
T1 sequence (Q8BHY3 1-956 isoform Q8BHY3-2): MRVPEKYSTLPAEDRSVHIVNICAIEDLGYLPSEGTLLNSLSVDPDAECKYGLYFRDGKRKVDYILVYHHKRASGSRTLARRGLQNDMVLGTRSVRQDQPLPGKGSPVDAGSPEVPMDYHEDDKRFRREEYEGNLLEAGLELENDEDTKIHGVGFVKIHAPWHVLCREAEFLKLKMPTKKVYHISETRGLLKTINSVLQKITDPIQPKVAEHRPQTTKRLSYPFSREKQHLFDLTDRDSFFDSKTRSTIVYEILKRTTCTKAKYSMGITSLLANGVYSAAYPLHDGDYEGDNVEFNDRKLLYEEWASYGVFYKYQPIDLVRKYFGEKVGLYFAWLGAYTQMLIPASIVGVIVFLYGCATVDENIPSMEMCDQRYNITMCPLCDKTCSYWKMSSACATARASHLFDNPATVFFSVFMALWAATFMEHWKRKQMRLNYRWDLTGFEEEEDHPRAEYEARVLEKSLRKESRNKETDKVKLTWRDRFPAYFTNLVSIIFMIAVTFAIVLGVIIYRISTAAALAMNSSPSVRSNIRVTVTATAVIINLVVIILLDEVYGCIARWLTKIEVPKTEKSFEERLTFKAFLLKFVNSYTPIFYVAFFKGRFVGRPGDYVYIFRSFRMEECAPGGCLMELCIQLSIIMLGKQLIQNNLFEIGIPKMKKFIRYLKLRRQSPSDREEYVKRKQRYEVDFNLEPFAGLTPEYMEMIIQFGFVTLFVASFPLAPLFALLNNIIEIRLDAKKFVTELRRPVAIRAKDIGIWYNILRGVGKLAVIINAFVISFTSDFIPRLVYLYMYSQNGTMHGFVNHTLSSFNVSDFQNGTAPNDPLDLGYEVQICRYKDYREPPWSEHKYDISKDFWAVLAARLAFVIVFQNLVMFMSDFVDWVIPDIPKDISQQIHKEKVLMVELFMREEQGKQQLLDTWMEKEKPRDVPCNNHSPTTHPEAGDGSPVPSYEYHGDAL
Description: (§1) The mouse TMEM16A cDNA (NCBI reference sequence: NM_001242349.1) encoding ANO1 CaCC was a generous gift from Dr. Lily Jan. We subcloned the coding region of the cDNA into pEGFP-N3 vector (Clontech Laboratories, Inc.), resulting in a construct in which an enhanced green fluorescent protein (eGFP) was attached to the C-terminus of the ANO1 protein. The sequence was confirmed by commercially-available DNA sequencing service. This eGFP-attached ANO1 cDNA construct was used for channel expression throughout the study. The cDNA was transfected into human embryonic kidney (HEK) 293 cells using lipofectamine transfection methods, [42], [43]. A fluorescent light source and a GFP filter set (Chroma Technology Co.) in the DM IRB inverted microscope (Leica Microsystems) were used to identify transfected cells expressing channel proteins. Electrophysiological experiments were performed ∼24 to 72 hours after transfection.
The anion permeability of the ANO1 pore was examined under bi-ionic conditions in which the extracellular solution contained 140 mM NaCl (the zero-Ca^2+ solution). The intracellular solution contained 140 mM sodium salts of various anions with the exception of the HCO3 ^− experiment in which the solution contained 130 mM NaHCO3 and 10 mM NaCl. In all intracellular solutions for the bi-ionic experiments, 0.1 mM EGTA and 0.12 mM total Ca^2+ or Sr^2+ were added to the solution to activate the ANO1 channel (Free [Ca^2+] or [Sr^2+] were saturating concentrations). Erev of the open channel was measured in two ways. First, under voltage-clamp configuration, a 3-sec voltage ramp from −80 mV to +80 mV was applied and the Erev of the leak-subtracted I-V curve was then determined (see Fig. 5 A & B). The second method employed the current-clamp (I = 0) mode in which the patch was exposed to divalent cations throughout the recording (Fig. 5 C and Fig. 6 A & C). When the intracellular solution contained the same concentration of Cl^− as that in the extracellular side, the recorded voltage (EI = 0) was normally close to 0 mV. When the intracellular solution was replaced by the one containing other anions, the value of EI = 0 changed to a new value corresponding to the Erev of the new ionic condition. It is important to point out that the measurement of Erev can be imprecise if the amplitude of the ANO1 current is not within a proper range. Therefore, in permeability ratio measurements we only used the data obtained from patches with a maximal current in the range of 100 pA–1000 pA at +40 mV. All the presented Erev values (and the recording traces for measuring Erev) are not corrected for junction potential difference between solutions because the junction potentials are relatively small. However, the reported permeability ratios were calculated based on the junction potential-corrected Erev. The correction for the junction potential results in very small changes in the calculated permeability ratios.
The permeability ratios of various anions versus Cl^− (PX/PCl, where X represents various anions) were calculated using the Erev obtained from bi-ionic experiments according to the following equation (eq. 3), PX/PCl = exp[Erev/(RT/F)], where R, T, and F are the gas constant, absolute temperature, and Faraday constant, respectively. Comparing the difference between Erev’s of the Ca^2+- and Sr^2+-activated current was performed using the pair t test at the significant level of 0.05.

TMEM16A (ANO1) [2] = target: T1, TMEM16A (ANO1); test: Activation of ANO1 current by divalent cations, excised inside-out patch with fast solution exchange; format: cell-based
Description: as §1
All chemicals were reagent grade. Regular salts (such as NaCl, NaOH, CaCl2, SrCl2, BaCl2, MgCl2 or sodium salts of various anions) were purchased from Fisher Chemicals (Fair Lawn, NJ), J. T. Baker (Phillipsburg, NJ) or Sigma Chemicals Co. (St. Louis, MO). EGTA, HEPES, and NFA were from Sigma Chemicals Co. Excised inside-out patch-clamp recordings were performed throughout the study. The extracellular (pipette) solution in all experiments contained: 140 mM NaCl, 10 mM HEPES, 0.1 mM EGTA, pH = 7.4. The regular intracellular solution contained 10 mM HEPES and 140 mM sodium salt of Cl^− or other anions. Various concentrations of divalent cations were made by adding certain total concentrations of divalent cations (Cl^− salts) into the solution containing a defined concentration of EGTA. We defined the pipette solution as the “zero-Ca^2+” solution. A solution containing a saturating [Ca^2+] was made by adding 0.12 mM total [Ca^2+] into the aforementioned zero-Ca^2+ solution, resulting in a solution containing ∼20 µM free [Ca^2+]. For making non-saturating [Ca^2+] solutions, the solutions included 1 mM EGTA. To make solutions containing Sr^2+ and Ba^2+, only 0.1 mM EGTA was used. The pH of all solutions was adjusted to 7.4.
Because of weak Mg^2+-EGTA binding, we referred the total [Mg^2+] as the free [Mg^2+]. The free [Ca^2+], [Sr^2+], and [Ba^2+] were calculated using the MaxChelator program (Ver1.2) kindly provided by Chris Patton from the Stanford University. This program was developed based on the binding constants available in the National Institute of Standard and Technology (NIST) between EGTA and these three divalent cations. Table S1, Table S2, and Table S3 list respectively the calculated free [Ca^2+], [Sr^2+], and [Ba^2+] used in this study. All added divalent cations were Cl^− salts. […] For example, in a solution containing 5 mM, 10 mM or 30 mM MgCl2, only 130 mM, 120 mM or 80 mM of NaCl, respectively, were added to the solution.
The patch-clamp recording pipettes were fabricated from borosilicate glass capillaries (World Precision Instruments) using PP830 electrode puller (Narishige International). When filled with the pipette solution, the electrode resistance was ∼1.5–3 MΩ. The experiments were carried out at room temperature (20–23°C) using the Axopatch 200B amplifier controlled by the Digidata I/O converter and the pClamp9 software (Axon Instruments/Molecular Devices).
Solution exchange was achieved using the SF-77 solution exchanger (Warner Instruments). After the excised inside-out patch mode was established, the tip of the patch pipette was positioned at the exit of the solution-delivery pipes of the SF-77 solution exchanger. The switch of solution pipes was controlled by a digital signal delivered from the Digidata 1320 digitizing board. […]

TMEM16A (ANO1) [3] = target: T1, TMEM16A (ANO1); test: Mg^2+ inhibition of Ca^2+-induced ANO1 current and shift of the Ca^2+-activation curve (Schild plot); format: cell-based
Description: as §1
All chemicals were reagent grade. Regular salts (such as NaCl, NaOH, CaCl2, SrCl2, BaCl2, MgCl2 or sodium salts of various anions) were purchased from Fisher Chemicals (Fair Lawn, NJ), J. T. Baker (Phillipsburg, NJ) or Sigma Chemicals Co. (St. Louis, MO). EGTA, HEPES, and NFA were from Sigma Chemicals Co. Excised inside-out patch-clamp recordings were performed throughout the study. The extracellular (pipette) solution in all experiments contained: 140 mM NaCl, 10 mM HEPES, 0.1 mM EGTA, pH = 7.4. The regular intracellular solution contained 10 mM HEPES and 140 mM sodium salt of Cl^− or other anions. Various concentrations of divalent cations were made by adding certain total concentrations of divalent cations (Cl^− salts) into the solution containing a defined concentration of EGTA. We defined the pipette solution as the “zero-Ca^2+” solution. A solution containing a saturating [Ca^2+] was made by adding 0.12 mM total [Ca^2+] into the aforementioned zero-Ca^2+ solution, resulting in a solution containing ∼20 µM free [Ca^2+]. For making non-saturating [Ca^2+] solutions, the solutions included 1 mM EGTA. […]
Because of weak Mg^2+-EGTA binding, we referred the total [Mg^2+] as the free [Mg^2+]. The free [Ca^2+], [Sr^2+], and [Ba^2+] were calculated using the MaxChelator program (Ver1.2) kindly provided by Chris Patton from the Stanford University. […] Table S1, Table S2, and Table S3 list respectively the calculated free [Ca^2+], [Sr^2+], and [Ba^2+] used in this study. […]
Solution exchange was achieved using the SF-77 solution exchanger (Warner Instruments). […] The recorded current is normally time-independent following fast solution exchange, but on infrequent occasions there is a slow increase of current. Therefore, we measured the current amplitude at the end of the solution exchange when the current amplitude reaches a steady-state maximal value. […]

CaCC of Xenopus oocytes = system: CaCC of Xenopus oocytes; parameters: method as in PMID 11279188; settings: cited from earlier work
[4] = Ca^2+-activated current (20 µM), 140 mM extracellular NaCl, anion as intracellular sodium salt 140 mM (HCO3: 130 mM NaHCO3 + 10 mM NaCl), without junction potential correction, averaged
[5] = current activated by 20 µM Sr^2+, current clamp (I = 0), without correcting for junction potential
[6] = Schild plot from K1/2,Ca in 0, 2, 5 and 10 mM Mg^2+

Structure (SMILES)	Erev (bi-ionic potential) (TMEM16A (ANO1) [1]; [4])	permeability ratio PX/PCl (TMEM16A (ANO1) [1])	Erev (bi-ionic potential) (TMEM16A (ANO1) [1]; [5])	zero current potential of I–V curve (TMEM16A (ANO1) [1]; 140 mM extracellular NaCl)	sideness of the block (CaCC of Xenopus oocytes)	voltage dependence of inhibition (CaCC of Xenopus oocytes)	other results
N#C[S-].[Na+] [SCN^−]	62.0±2.4 mV	~11	59.4±0.8 mV	+64 mV			Erev (bi-ionic potential) (TMEM16A (ANO1) [1]; Ca^2+-activated current (20 µM), 140 mM extracellular NaCl, anion as intracellular sodium salt 140 mM (HCO3: 130 mM NaHCO3 + 10 mM NaCl), without junction potential correction, averaged, listed as SCN^–): ~+60 mV; voltage shift induced by SCN^− in Sr^2+ smaller than that in Ca^2+ by (TMEM16A (ANO1) [1]; same patch, 140 mM intracellular NaSCN, 4 patches): ~1 mV
[Mg+2] [Mg^2+]							ANO1 activation by Mg^2+ (TMEM16A (ANO1) [2]; up to 30 mM [Mg^2+], intracellular side): no ANO1 activation was detected; also recorded: unable to detect ANO1 current; IC50 (TMEM16A (ANO1) [3]; ANO1 current induced by 0.666 µM free Ca^2+, fit to eq. 2, read-out: apparent half-inhibition concentration): 5400 µM; [Mg^2+] that increases K1/2,Ca 2-fold (Schild plot) (TMEM16A (ANO1) [3]; [6]): ~2.5 mM; pMg at crossing of the horizontal axis of the Schild plot (TMEM16A (ANO1) [3]; [6]): ~2.6; Mg^2+ inhibition of ANO1 current activated by saturating [Ca^2+] (TMEM16A (ANO1) [3]; saturating [Ca^2+], 5 mM Mg^2+ (Fig. 4 C)): not observed; also recorded: not inhibited
[I-].[Na+] [I^−]	35.9±3.3 mV	~4.1	33.4±0.3 mV	+39 mV			Erev (bi-ionic potential) (TMEM16A (ANO1) [1]; Ca^2+-activated current (20 µM), 140 mM extracellular NaCl, anion as intracellular sodium salt 140 mM (HCO3: 130 mM NaHCO3 + 10 mM NaCl), without junction potential correction, averaged, listed as I^–): ~+35 mV
O=C(O)c1ccccc1Nc1ccccc1 [DPC]					from the extracellular side	voltage dependent	
O=C(O)c1c2ccccc2cc2ccccc12 [A9C]					from the extracellular side	voltage dependent	
[Ba+2].[Cl-].[Cl-] [Ba^2+]							fraction of maximal current activated (TMEM16A (ANO1) [2]; 404 µM [Ba^2+]): 70–80%; maximal ANO1 current activated by saturating divalent cation compared with Is induced by saturating [Ca^2+] (TMEM16A (ANO1) [2]; Is induced by 20 µM Ca^2+, ±40 mV): can activate the same maximal current; also recorded: activated the channel to the same maximal current level; Hill coefficient (n) of dose-response activation curve (TMEM16A (ANO1) [2]; values covering +40 and −40 mV): 1.1–1.4 and 1–1.5; EC50 (TMEM16A (ANO1) [2]; values covering +40 and −40 mV, read-out: K1/2 of ANO1 activation): 130 to 230 µM and 100 to 200 µM
